Data reported in BindingDB's records for doi:10.1016/j.bmcl.2006.10.060 (Merck Research Laboratories, 2007).

Experiment: Antagonist activity against human CCR2 receptor assessed as inhibition of MCP1-induced migration of human peripheral blood monocytes

Row | SMILES | IC50 [nM]
1 | O=C(CCCc1cc(-c2cc(Cl)cc(Cl)c2)nn1-c1ccc2ccccc2c1)NCCCc1ccncc1 [4-(3-(3,5-dichlorophenyl)-1-(naphthalen-2-yl)-1H-pyrazol-5-yl)-N-(3-(pyridin-4-yl)propyl)butanamide] | 1400
2 | CCN(CC)CCCC(C)NC(=O)CCOc1cc(-c2cc(Cl)cc(Cl)c2)nn1-c1ccc2ccccc2c1 (stereo unspecified) [3-(3-(3,5-dichlorophenyl)-1-(naphthalen-2-yl)-1H-pyrazol-5-yloxy)-N-(5-(diethylamino)pentan-2-yl)propanamide] | 280
3 | CCN(CC)CCCC(C)NC(=O)CCNc1cc(-c2cc(Cl)cc(Cl)c2)nn1-c1ccc2ccccc2c1 (stereo unspecified) [3-(3-(3,5-dichlorophenyl)-1-(naphthalen-2-yl)-1H-pyrazol-5-ylamino)-N-(5-(diethylamino)pentan-2-yl)propanamide] | 54
4 | CCCC(CCCN(CC)CC)NC(=O)CCOc1cc(-c2cc(Cl)cc(Cl)c2)nn1-c1ccc2ccccc2c1 (stereo unspecified) [3-(3-(3,5-dichlorophenyl)-1-(naphthalen-2-yl)-1H-pyrazol-5-yloxy)-N-(1-(diethylamino)heptan-4-yl)propanamide] | 154
5 | CCC(C)CC(CCCN(CC)CC)NC(=O)CCOc1cc(-c2cc(Cl)cc(Cl)c2)nn1-c1ccc2ccccc2c1 (stereo unspecified) [3-(3-(3,5-dichlorophenyl)-1-(naphthalen-2-yl)-1H-pyrazol-5-yloxy)-N-(1-(diethylamino)-6-methyloctan-4-yl)propanamide] | 225
6 | COC(=O)[C@H](CCCN=C(N)N)NC(=O)CCOc1cc(-c2cc(Cl)cc(Cl)c2)nn1-c1ccc2ccccc2c1 [(S)-2-{3-[5-(3,5-dichloro-phenyl)-2-naphthalen-2-yl-2H-pyrazol-3-yloxy]-propionylamino}-5-guanidino-pentanoic acid methyl ester] | 118
7 | COC(=O)[C@H](CCCN=C(N)N)NC(=O)CCNc1cc(-c2cc(Cl)cc(Cl)c2)nn1-c1ccc2ccccc2c1 [(S)-2-{3-[5-(3,5-dichloro-phenyl)-2-naphthalen-2-yl-2H-pyrazol-3-ylamino]-propionylamino}-5-guanidino-pentanoic acid methyl ester] | 68
8 | CCN(CC)CCCC(NC(=O)CCOc1cc(-c2cc(Cl)cc(Cl)c2)nn1-c1ccc2ccccc2c1)C(C)C (stereo unspecified) [3-(3-(3,5-dichlorophenyl)-1-(naphthalen-2-yl)-1H-pyrazol-5-yloxy)-N-(6-(diethylamino)-2-methylhexan-3-yl)propanamide] | 32
9 | CCN(CC)CCCC(CC(C)C)NC(=O)CCOc1cc(-c2cc(Cl)cc(Cl)c2)nn1-c1ccc2ccccc2c1 (stereo unspecified) [3-(3-(3,5-dichlorophenyl)-1-(naphthalen-2-yl)-1H-pyrazol-5-yloxy)-N-(1-(diethylamino)-6-methylheptan-4-yl)propanamide] | 178
10 | COC(=O)[C@H](CCCN=C(N)N)NC(=O)CCCc1cc(-c2cc(Cl)cc(Cl)c2)nn1-c1ccc2ccccc2c1 [(S)-2-{4-[5-(3,5-dichloro-phenyl)-2-naphthalen-2-yl-2H-pyrazol-3-yl]-butyrylamino}-5-guanidino-pentanoic acid methyl ester] | 185
11 | CCC(CCCN(CC)CC)NC(=O)CCOc1cc(-c2cc(Cl)cc(Cl)c2)nn1-c1ccc2ccccc2c1 (stereo unspecified) [3-(3-(3,5-dichlorophenyl)-1-(naphthalen-2-yl)-1H-pyrazol-5-yloxy)-N-(6-(diethylamino)hexan-3-yl)propanamide] | 83
